Results as given in patent US20160106695A1, “PETROSELINIC ACID OR A COMBINATION OF ACTIVE INGREDIENTS COMPRISING AT LEAST PETROSELINIC ACID FOR PROMOTING WEIGHT LOSS AND/OR WEIGHT MAINTENANCE” (NESTEC SA, priority 2013, published 2016).

Test system: lipoxin A4 production by mononuclear blood cells
Assay: Synthesis/release of lipoxin A4 by stimulated (PMA/A23187 + DHA/EPA) mononuclear blood cells, LC-MS quantification
Assay type: cell-based
Settings: 30 min pre-incubation, 2 hours of stimulation
Experimental: Mononuclear blood cells are cultured under 5% CO2 and at 37° C. in a serum-free medium for macrophages (SFM Macrophage; Invitrogen 12065074) for 24 hours.
After this step, the medium is replaced with the same fresh test medium also containing the active agents at the various doses for 30 minutes in the presence of the various products to be evaluated, as indicated in the table of results below. The inflammatory response was then triggered in the presence of phorbol myristate (0.05 μM) and calcium ionophore (1 μM) and of a lipid substrate mixture composed of docosahexaenoic acid (DHA—1 μg/mL) and eicosapentaenoic acid (EPA—1 μg/mL).
The supernatants were then collected after 2 hours of stimulation and frozen at −80° C. before preparation for analysis by mass spectrometry.
Experimental triplicates (three wells) were prepared per experimental condition. Into each culture plate was placed a control corresponding to cells stimulated with the PMA/A23187 mixture and/or with addition of the equimolar mixture of fatty acids.
The thawed supernatants were concentrated by solid-phase extraction (SPE) and taken up in methanol before spectrometric analysis. The analytical method used consists in separating the various analytes by high-pressure liquid chromatography as a function of their retention time and in quantifying them by mass spectrometry. […]

Compound	Level of lipoxin A4 production (% modulation relative to the control) (zinc gluconate 0.005 mg/ml) [%]	Level of lipoxin A4 production (% modulation relative to the control) (taurine 3.1 mg/ml)
Zinc gluconate	−5	
NCCS(=O)(=O)O [Taurine]		+38%
